In patent US10307413B2, “Tetrahydro- and dihydro-isoquinoline PRMT5 inhibitors and uses thereof” (Epizyme, Inc., priority 2013, dated 2019) one finds EC50 and IC50 data, which are given here for 20 molecules.

Each structure is given as a SMILES string. pEC50, pIC50: −log10 of the molar value. Where two headings read alike, the source gives them in different places.

One experiment deals with Z-138 cell line. Briefly: Z-138 Proliferation Assay (Cell Titer Glo, 5 days). Format: cell-based. As to conditions: Homo sapiens, 120 h, Z-138 cells, 5 days, read-out: Proliferation EC50. A digest of the protocol:
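Viability via CellTiter-Glo luminescence (ATP) after 5-day incubation at 37 °C, 5% CO2. Compounds tested in triplicate, nine 3-fold steps, highest final concentration 20 μM in 0.2% DMSO; 50% inhibitory concentration by 4-parameter fit of normalized curves.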
In general terms: Cellular ATP, detected with luciferase, serves as a proxy for viable cell number.

Experiment [1] deals with symmetric di-methyl arginine in Z-138 cells. The experiment in a line: Z-138 Methylation Assay (In Cell Western for symmetric di-methyl arginine and DNA content). Format: cell-based. Conditions: Homo sapiens, read-out: ICW EC50. A digest of the protocol: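 In-cell western: symmetric di-methyl arginine signal ratioed to DRAQ5 DNA content after 96 h compound exposure of Z-138 cells seeded at 50,000 cells/mL.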

For a further experiment, the target named is PRMT5/MEP50 (Homo sapiens (Human), UniProt O14744). The experiment in a line: PRMT5 Biochemical Assay (PRMT5/MEP50 enzyme assay on peptide substrate, 3H-SAM Flashplate). A digest of the protocol:
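Radiometric methylation of a biotin-tagged H4(1-15) peptide by human PRMT5/MEP50 from baculovirus/Sf9, with ³H-SAM incorporation read on streptavidin Flashplates. Buffer: Bicine pH 7.6, TCEP, BSG, Tween20; compound preincubated 30 min at 25 °C; stopped with 600 µM final unlabeled SAM. DMSO and SAH controls; IC50 from fitted % inhibition.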

Sequence of PRMT5/MEP50 (O14744 other isoform, or with tags, fused parts or gaps): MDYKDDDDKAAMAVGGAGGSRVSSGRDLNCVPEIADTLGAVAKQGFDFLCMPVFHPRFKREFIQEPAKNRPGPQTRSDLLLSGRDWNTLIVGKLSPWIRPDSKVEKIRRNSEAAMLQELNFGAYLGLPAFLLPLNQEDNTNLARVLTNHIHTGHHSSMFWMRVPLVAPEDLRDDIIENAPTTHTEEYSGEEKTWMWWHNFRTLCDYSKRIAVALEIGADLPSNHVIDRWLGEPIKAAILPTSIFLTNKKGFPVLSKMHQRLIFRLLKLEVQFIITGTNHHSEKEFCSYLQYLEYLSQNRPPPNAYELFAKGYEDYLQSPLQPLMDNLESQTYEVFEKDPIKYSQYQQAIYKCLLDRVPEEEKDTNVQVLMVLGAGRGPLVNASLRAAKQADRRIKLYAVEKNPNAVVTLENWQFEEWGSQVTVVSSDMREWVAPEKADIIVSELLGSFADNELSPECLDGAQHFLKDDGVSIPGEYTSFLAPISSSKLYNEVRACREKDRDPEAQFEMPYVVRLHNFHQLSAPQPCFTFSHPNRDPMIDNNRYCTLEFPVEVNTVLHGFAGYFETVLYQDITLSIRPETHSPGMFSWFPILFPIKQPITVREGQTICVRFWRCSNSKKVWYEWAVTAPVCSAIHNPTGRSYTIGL
Sequence of PRMT5/MEP50 (Q9BQA1 other isoform, or with tags, fused parts or gaps partner): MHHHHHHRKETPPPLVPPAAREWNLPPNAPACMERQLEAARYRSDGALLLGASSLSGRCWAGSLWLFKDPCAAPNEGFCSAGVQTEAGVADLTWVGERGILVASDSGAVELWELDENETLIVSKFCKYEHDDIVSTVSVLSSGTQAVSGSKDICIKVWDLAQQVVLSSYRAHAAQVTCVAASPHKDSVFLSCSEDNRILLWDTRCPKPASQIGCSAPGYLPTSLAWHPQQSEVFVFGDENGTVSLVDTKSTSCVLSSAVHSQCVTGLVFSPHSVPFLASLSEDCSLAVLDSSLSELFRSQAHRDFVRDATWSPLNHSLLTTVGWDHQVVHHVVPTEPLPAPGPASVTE

In the case of `CNC(=O)[C@H]1C[C@@H](Nc2cc(C(=O)NC[C@H](O)CN3CCc4ccccc4C3)ncn2)C1` [Compound 513], the pEC50 with Z-138 cell line (Cell Titer Glo) was 6.00 to 7.00; in experiment [1] (In Cell Western methylation) it was above 7.00. On PRMT5/MEP50 (PRMT5 biochemical assay), the pIC50 was above 7.00.
With `CS(=O)(=O)CCN1CC(Nc2cc(C(=O)NC[C@H](O)CN3CCc4ccccc4C3)ncn2)C1` [Compound 580], the pEC50 in the experiment with Z-138 cell line (Cell Titer Glo) was below 5.30; in experiment [1] (In Cell Western methylation), 6.00 to 7.00. Also, on PRMT5/MEP50 (PRMT5 biochemical assay), the pIC50 is above 7.00.
Regarding `CC(=O)N1CCN(c2nc(NC3COC3)cc(C(=O)NC[C@H](O)CN3CCc4ccccc4C3)n2)CC1` [Compound 497], the pEC50 (with Z-138 cell line (Cell Titer Glo); in experiment [1] (In Cell Western methylation)) was above 7.00 throughout. Further, the pIC50 on PRMT5/MEP50 (PRMT5 biochemical assay) is above 7.00.
For the molecule `CN[C@H]1CC[C@@H](Nc2cc(C(=O)NC[C@H](O)CN3CCc4ccccc4C3)ncn2)CC1` [Compound 630], the pEC50 with Z-138 cell line (Cell Titer Glo) is below 5.30; in experiment [1] (In Cell Western methylation), 6.00 to 7.00. Moreover, the pIC50 on PRMT5/MEP50 (PRMT5 biochemical assay) was above 7.00.
For `CC(=O)N1CCC(Nc2cc(C(=O)NC[C@H](O)CN3CCc4cccc(C)c4C3)ncn2)CC1` [Compound 664], in that order: 6.00 to 7.00, above 7.00 and above 7.00.
For `CSCCN1CCC(Nc2cc(C(=O)NC[C@H](O)CN3CCc4ccccc4C3)ncn2)CC1` [Compound 639], in that order: 5.00 to 6.00, above 7.00 and above 7.00.
In the case of `O=C(NC[C@H](O)CN1CCc2ccccc2C1)c1cc(N[C@H]2CCOC2)ncn1` [Compound 351], the pEC50 with Z-138 cell line was 6.00 to 7.00; in experiment [1] it was above 7.00. For the same molecule, the pIC50 at PRMT5/MEP50 was above 7.00.
For the molecule `CS(=O)(=O)N1CCN(c2nc(NC3COC3)cc(C(=O)NC[C@H](O)CN3CCc4ccccc4C3)n2)CC1` [Compound 499], the pEC50 with Z-138 cell line (Cell Titer Glo) is 6.00 to 7.00; in experiment [1] (In Cell Western methylation), above 7.00. Moreover, on PRMT5/MEP50 (PRMT5 biochemical assay), the pIC50 is above 7.00.
Regarding `O=C(NC[C@H](O)CN1CCc2ccccc2C1)c1cc(N[C@@H]2CCOC2)ncn1` [Compound 365], the values for the pEC50 (in the experiment on Z-138 cell line; in experiment [1]) were 6.00 to 7.00 and above 7.00, respectively. The pIC50 at PRMT5/MEP50 is above 7.00.
With `O=C(NC[C@H](O)CN1CCc2ccccc2C1)c1ccnc(OC2CCC2)c1` [Compound 350], the results for the pEC50 (in the experiment on Z-138 cell line; in experiment [1]) were 6.00 to 7.00 and above 7.00, respectively. Moreover, the pIC50 at PRMT5/MEP50 was above 7.00.
As to `O=C(NC[C@H](O)CN1CCc2ccccc2C1)c1cc(NC2CN(C(=O)C3CC3)C2)ncn1` [Compound 425], the pEC50 (in the experiment with Z-138 cell line (Cell Titer Glo); in experiment [1] (In Cell Western methylation)) was above 7.00 each time. Besides, the pIC50 on PRMT5/MEP50 (PRMT5 biochemical assay) is above 7.00.
In the case of `CC(=O)N1CCC(Nc2cc(C(=O)NC[C@H](O)CN3CCc4ccccc4C3)cc(N(C)C)n2)CC1` [Compound 610], the pEC50 (in the experiment on Z-138 cell line (Cell Titer Glo); in experiment [1] (In Cell Western methylation)) was above 7.00 in each case. At PRMT5/MEP50 (PRMT5 biochemical assay), the pIC50 was above 7.00.
Consider `CC(C)N1CCN(c2nc(NC3CNC3)cc(C(=O)NC[C@H](O)CN3CCc4ccccc4C3)n2)CC1` [Compound 500], for which the pEC50 in the experiment on Z-138 cell line (Cell Titer Glo) is 4.30 to 5.00; in experiment [1] (In Cell Western methylation) it was 6.00 to 7.00. The pIC50 at PRMT5/MEP50 (PRMT5 biochemical assay) is above 7.00.
With `COC(CNC(=O)c1cc(NC2CN(C(C)=O)C2)ncn1)CN1CCc2ccccc2C1` (stereo not drawn) [Compound 690], the results for the pEC50 (in the experiment on Z-138 cell line (Cell Titer Glo); in experiment [1] (In Cell Western methylation)) were below 5.30 and 6.00 to 7.00, respectively. Also, at PRMT5/MEP50 (PRMT5 biochemical assay), the pIC50 was 6.00 to 7.00.
Consider `CC(=O)N1CC(Nc2cc(C(=O)NCC(C)CN3CCc4ccccc4C3)ncn2)C1` (stereo not drawn) [Compound 659], for which the pEC50 is 6.00 to 7.00 in the experiment with Z-138 cell line (Cell Titer Glo) and above 7.00 in experiment [1] (In Cell Western methylation). Moreover, on PRMT5/MEP50 (PRMT5 biochemical assay), the pIC50 was above 7.00.
As for `O=C(NC[C@H](O)CN1CCc2ccccc2C1)c1cc(N[C@H]2C[C@@H](C(=O)N3CCC3)C2)ncn1` [Compound 517], the figures for the pEC50 (with Z-138 cell line (Cell Titer Glo); in experiment [1] (In Cell Western methylation)) were 6.00 to 7.00 and above 7.00, respectively. In addition, the pIC50 at PRMT5/MEP50 (PRMT5 biochemical assay) is above 7.00.
`CC(=O)N1CCN(c2nc(NC3CNC3)cc(C(=O)NC[C@H](O)CN3CCc4ccccc4C3)n2)CC1` [Compound 483]: the results for the pEC50 (in the experiment on Z-138 cell line (Cell Titer Glo); in experiment [1] (In Cell Western methylation)) were 5.00 to 6.00 and above 7.00, respectively. Also, the pIC50 at PRMT5/MEP50 (PRMT5 biochemical assay) is above 7.00.
On to `CC(=O)N1CC(Nc2cc(C(=O)NC[C@H](O)CN3CCc4ccccc4C3)c(C)cn2)C1` [Compound 380], for which the results for the pEC50 (in the experiment with Z-138 cell line; in experiment [1]) were 6.00 to 7.00 and above 7.00, respectively. Further, the pIC50 on PRMT5/MEP50 is above 7.00.
Consider `CC(C)N1CC(Nc2cc(C(=O)NC[C@H](O)CN3CCc4ccccc4C3)ncn2)C1` [Compound 423], for which the pEC50 in the experiment with Z-138 cell line (Cell Titer Glo) is 4.30 to 5.00; in experiment [1] (In Cell Western methylation), 6.00 to 7.00. For the same molecule, at PRMT5/MEP50 (PRMT5 biochemical assay), the pIC50 was above 7.00.
As to `CN1CCC(Nc2cccc(C(=O)NCC(O)CN3CCc4ccccc4C3)c2)C1` (stereo not drawn) [Compound 120], the pEC50 in the experiment on Z-138 cell line is 5.00 to 6.00; in experiment [1], 6.00 to 7.00. In addition, the pIC50 at PRMT5/MEP50 is above 7.00.

As usually defined, the pIC50 is the negative decadic logarithm of the IC50, by convention in mol/L.
